Reference: US20170050957A1, “4-AMINO-6-(HETEROCYCLIC)PICOLINATES AND 6-AMINO-2-(HETEROCYCLIC)PYRIMIDINE-4-CARBOXYLATES AND THEIR USE AS HERBICIDES” (Dow AgroSciences LLC, priority 2013, published 2017)
Where two headings read alike, the source gives them in different places.

Tests used:
Type in all cases: in vivo
[1] = system: Key Broadleaf Weed and Crop Species; assay: Post-emergent Test II herbicidal activity (Table 15); settings: post-emergence, 336 h, 14 d; for pest or weed control at 35 g/ha: 35 g ai/ha; for pest or weed control at 70 g/ha: 70 g ai/ha; for pest or weed control at 280 g/ha: 280 g ai/ha
In short: (§1)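 Herbicidal effect scored as percent visual injury, 14 d after post-emergent application. Spray solutions contained acetone, DMSO, isopropyl alcohol, crop oil concentrate and surfactant, applied at 187 L/ha to young plants (1-2 true leaves).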

wild oats (Avena fatua) = assay: Post-emergent Test I herbicidal activity; settings: 4 Kg ai/ha
Experimental: (§2) Post-emergent Test I Seeds test species were obtained from commercial suppliers and planted into a 5″-round pot containing soil-less media mix (metro-mix 360®, Sun Gro Horticulture). Postemergence treatments were planted 8-12 days prior to application and cultured in a greenhouse equipped with supplemental light sources to provide a 16 h photoperiod at 24-29° C. All pots were surface irrigated. Approximately 10 milligrams (mg) of each compound were dissolved in 1.3 mL acetone-DMSO (97:3, v/v) and diluted with 4.1 mL water-isopropanol-crop oil concentrate (78:20:2, v/v/v) containing 0.02% Triton X-155. Treatments were serial diluted with the above formulation solvent to provide 1.85, 0.926, 0.462 and 0.231 mg/mL of test compound delivered in 2.7 mL/pot (roughly equivalent to 4.0, 2.0, 1.0, and 0.5 kg/ha, respectively). Formulated compounds were applied using a DeVilbiss® compressed air sprayer at 2-4 psi. Following treatment, pots were returned to the greenhouse for the duration of the experiment. All pots were sub-irrigated as need to provide optimum growing conditions. All pots were fertilized one time per week by subirrigating with Peters Peat-Lite Special® fertilizer (20-10-20). Phytotoxicity ratings were obtained 10 days after treatment postemergence applications. All evaluations were made visually on a scale of 0 to 100 where 0 represents no activity and 100 represents complete plant death. Visual assessments of plant injury were made based on growth reduction, discoloration, leaf deformity and necrosis

[2] = system: giant foxtail (Setaria faberi); assay: Post-emergent Test I herbicidal activity; settings: 4 Kg ai/ha
Experimental: as §2

[3] = system: sunflower (Helianthus annuus); assay: Post-emergent Test I herbicidal activity; settings: 4 Kg ai/ha
Experimental: as §2

[4] = system: barnyardgrass (Echinochloa crus-galli); assay: Post-emergent Test I herbicidal activity; settings: 4 Kg ai/ha
Experimental: as §2

[5] = system: Key Grass and Sedge Weeds as well as Grass Crops; assay: Post-emergent Test II herbicidal activity (Table 16); settings: post-emergence, 336 h, 14 d; for pest or weed control at 35 g/ha: 35 g ai/ha; for pest or weed control at 70 g/ha: 70 g ai/ha; for pest or weed control at 140 g/ha: 140 g ai/ha; for pest or weed control at 280 g/ha: 280 g ai/ha
In short: as §1

[6] = Abutilon theophrasti, velvetleaf (Abutilon theophrasti), read-out: Visual Growth Reduction (%) 14 Days After Application, ABUTH
[7] = Amaranthus retroflexus, redroot pigweed (Amaranthus retroflexus), read-out: Visual Growth Reduction (%) 14 Days After Application, AMARE
[8] = Brassica napus, oilseed rape, canola (Brassica napus), read-out: Visual Growth Reduction (%) 14 Days After Application, BRSNN
[9] = Chenopodium album, lambsquarters (Chenopodium album), read-out: Visual Growth Reduction (%) 14 Days After Application, CHEAL
[10] = Euphorbia heterophylla, wild poinsettia (Euphorbia heterophylla), read-out: Visual Growth Reduction (%) 14 Days After Application, EPHHL
[11] = Helianthus annuus, sunflower (Helianthus annuus), read-out: Visual Growth Reduction (%) 14 Days After Application, HELAN
[12] = Cyperus esculentus, yellow nutsedge (Cyperus esculentus), read-out: Visual Growth Reduction (%) 14 Days After Application, CYPES
[13] = Echinochloa crus-galli, barnyardgrass (Echinochloa crus-galli), read-out: Visual Growth Reduction (%) 14 Days After Application, ECHCG
[14] = Oryza sativa, rice (Oryza sativa), read-out: Visual Growth Reduction (%) 14 Days After Application, ORYSA
[15] = Setaria faberi, giant foxtail (Setaria faberi), read-out: Visual Growth Reduction (%) 14 Days After Application, SETFA
[16] = Triticum aestivum, wheat, spring (Triticum aestivum), read-out: Visual Growth Reduction (%) 14 Days After Application, TRZAS
[17] = Zea mays, maize, corn (Zea mays), read-out: Visual Growth Reduction (%) 14 Days After Application, ZEAMX

**Q.** Which results are given for COC(=O)c1nc(-c2ccc3sccc3c2)cc(N)c1Cl [Compound 3.05]?
**A.** pest or weed control at 35 g/ha [1, 6]: 85 to 94%; pest or weed control at 70 g/ha [1, 6]: 85 to 94%; pest or weed control at 280 g/ha [1, 6]: 95 to 100%; pest or weed control at 35 g/ha [1, 7]: 30 to 44%; pest or weed control at 70 g/ha [1, 7]: 45 to 59%; pest or weed control at 280 g/ha [1, 7]: 85 to 94%; pest or weed control at 35 g/ha [1, 8]: 0 to 29%; pest or weed control at 70 g/ha [1, 8]: 0 to 29%; pest or weed control at 280 g/ha [1, 8]: 0 to 29%; pest or weed control at 35 g/ha [1, 9]: 75 to 84%; pest or weed control at 70 g/ha [1, 9]: 85 to 94%; pest or weed control at 140 g/ha ([1]; Chenopodium album, lambsquarters (Chenopodium album), 140 g ai/ha, read-out: Visual Growth Reduction (%) 14 Days After Application, CHEAL): 85 to 94%; pest or weed control at 280 g/ha [1, 9]: 85 to 94%; pest or weed control at 35 g/ha [1, 10]: 60 to 74%; pest or weed control at 70 g/ha [1, 10]: 60 to 74%; pest or weed control at 280 g/ha [1, 10]: 85 to 94%; pest or weed control at 35 g/ha [1, 11]: 0 to 29%; pest or weed control at 70 g/ha [1, 11]: 0 to 29%; pest or weed control at 280 g/ha [1, 11]: 45 to 59%; Visual Growth Reduction (%) 10 Days After Application AVEFA (wild oats (Avena fatua)): C (75-84); Visual Growth Reduction (%) 10 Days After Application SETFA [2]: A (95-100); Visual Growth Reduction (%) 10 Days After Application HELAN [3]: B (85-94); Visual Growth Reduction (%) 10 Days After Application ECHCG [4]: A (95-100); pest or weed control at 35 g/ha [5, 12]: 0 to 29%; pest or weed control at 70 g/ha [5, 12]: 0 to 29%; pest or weed control at 140 g/ha [5, 12]: 0 to 29%; pest or weed control at 280 g/ha [5, 12]: 0 to 29%; pest or weed control at 35 g/ha [5, 13]: 45 to 59%; pest or weed control at 70 g/ha [5, 13]: 75 to 84%; pest or weed control at 140 g/ha [5, 13]: 85 to 94%; pest or weed control at 280 g/ha [5, 13]: 85 to 94%; pest or weed control at 35 g/ha [5, 14]: 0 to 29%; pest or weed control at 70 g/ha [5, 14]: 0 to 29%; pest or weed control at 140 g/ha [5, 14]: 0 to 29%; pest or weed control at 280 g/ha [5, 14]: 0 to 29%; pest or weed control at 35 g/ha [5, 15]: 0 to 29%; pest or weed control at 70 g/ha [5, 15]: 0 to 29%; pest or weed control at 140 g/ha [5, 15]: 30 to 44%; pest or weed control at 280 g/ha [5, 15]: 60 to 74%; pest or weed control at 35 g/ha [5, 16]: 0 to 29%; pest or weed control at 70 g/ha [5, 16]: 0 to 29%; pest or weed control at 140 g/ha [5, 16]: 0 to 29%; pest or weed control at 280 g/ha [5, 16]: 0 to 29%; pest or weed control at 35 g/ha [5, 17]: 0 to 29%; pest or weed control at 70 g/ha [5, 17]: 0 to 29%; pest or weed control at 140 g/ha [5, 17]: 45 to 59%; pest or weed control at 280 g/ha [5, 17]: 60 to 74%
